The text below walks through data of paper PMC3438226 (Bioorganic & medicinal chemistry, 2012).

Assay [1] deals with T1, N. meningitidis MTAN (Neisseria meningitidis, UniProt Q9K054). In words: Inhibition of hydrolysis of MTA catalysed by N. meningitidis MTAN. Type of assay: biochemical.
The target of assay [2] is T2, human MTAP (Homo sapiens, UniProt Q13126).
T2 sequence (Q13126 1-283): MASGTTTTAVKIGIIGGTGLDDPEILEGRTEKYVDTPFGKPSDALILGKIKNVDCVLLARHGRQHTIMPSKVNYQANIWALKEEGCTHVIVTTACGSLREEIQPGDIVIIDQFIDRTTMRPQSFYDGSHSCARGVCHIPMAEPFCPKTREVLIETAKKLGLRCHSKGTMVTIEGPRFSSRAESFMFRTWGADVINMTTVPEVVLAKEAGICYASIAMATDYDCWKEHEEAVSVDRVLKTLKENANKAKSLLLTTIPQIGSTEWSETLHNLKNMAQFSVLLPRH
In words: Inhibition of phosphorolysis of MTA catalysed by human MTAP. Format: biochemical.

The target in assay [3] is T3, E. coli MTAN (Escherichia coli, UniProt P0AF12). Format: biochemical.
The target of assay [4] is T1, N. meningitidis MTAN. The settings on record: read-out: Ki* N. men. MTAN; Ki* value; cited from earlier work.
The target of assay [5] is T3, E. coli MTAN. The settings on record: read-out: Ki* E. coli MTAN; Ki* value; cited from earlier work.

T3 sequence (P0AF12 whole entry): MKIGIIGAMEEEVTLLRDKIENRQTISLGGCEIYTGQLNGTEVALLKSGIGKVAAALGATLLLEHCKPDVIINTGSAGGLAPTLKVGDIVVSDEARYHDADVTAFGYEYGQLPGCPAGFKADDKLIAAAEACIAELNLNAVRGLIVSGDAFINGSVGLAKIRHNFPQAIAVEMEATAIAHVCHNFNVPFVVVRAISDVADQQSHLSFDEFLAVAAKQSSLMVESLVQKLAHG

On to `CSCC(CO)CNCc1c[nH]c2c(N)ncnc12` (racemic) [(±)-25], for which, in assay [1] (N. meningitidis MTAN), the “difference in binding affinity compared with 4” value is listed as 9 fold. In addition, the “weaker binding affinity compared with 4” value in assay [2] was “approximately 110 fold”; in assay [3] (E. coli MTAN), roughly 180 fold. The “times weaker inhibitor than 17 I” value in assay [3] (E. coli MTAN) was determined as 1.5 fold.

For `CSC[C@@H](CN(C)Cc1c[nH]c2c(N)ncnc12)[C@@H](O)CO` (racemic) [(±)-68], in assay [1] (N. meningitidis MTAN, N-methylation), the “loss in activity relative to (±)-65” value is given as roughly 12 fold. Besides, the “improvement of inhibition relative to (±)-65” value in assay [2] (N-methylation) is recorded as “about 3 fold”. Also, in assay [3] (E. coli MTAN, N-methylation), the “loss of binding affinity relative to (±)-65” value was determined as 250 fold.

For the compound `CSC[C@H](O)[C@@H](CO)CN(C)Cc1c[nH]c2c(N)ncnc12` (racemic) [(±)-72], the “reduction in binding affinity relative to (±)-68” value in assay [1] (N. meningitidis MTAN) is given as “approximately 2 fold”; in assay [2], roughly 9 fold. Also, the “gain in binding affinity relative to (±)-68” value in assay [3] (E. coli MTAN) is roughly 6 fold.

As for `CSC[C@H](O)[C@@H](O)CN(C)Cc1c[nH]c2c(N)ncnc12` (racemic) [(±)-78], the “increase in potency relative to (±)-72” value in assay [1] (bacterial MTANs (N. meningitidis)) and in assay [3] (bacterial MTANs (E. coli)) was “approximately 2 fold” in each case. Further, in assay [2], the “loss in activity relative to (±)-72” value is listed as roughly 4 fold.

As to `CSC[C@@H](O)[C@@H](CO)NCc1c[nH]c2c(N)ncnc12` [Compound 33], in assay [3] (E. coli MTAN), the “times weaker inhibitor than 17 I” value is given as “about 4 fold”.

As for `CSC[C@@H](O)CNCc1c[nH]c2c(N)ncnc12` [Compound 54], in assay [3] (E. coli MTAN), the “drop in binding affinity relative to (±)-25” value is roughly 110 fold.

As for `CSC[C@H](CO)N[C@H](CO)c1c[nH]c2c(N)ncnc12` [Compound 79], in assay [3] (E. coli MTAN, cleavage of 2,3 C-C bond of 3), the “loss of activity relative to 3” value is on record as 21,500 fold.

What is called Ki is the equilibrium dissociation constant of an inhibitor or competing ligand from its target. As for “(1S)-1-(9-deazaadenin-9-yl)-1,4-dideoxy-1,4-imino-5-methylthio-D-ribitol [Compound 3]”, the Ki in assay [4] was 0.36 nM; in assay [5], 0.08 ± 0.02 nM.
